From ChEMBL document CHEMBL5727955, “Aminopyrazoles as janus kinase inhibitors” (2020)

How the values were obtained:
[1] = molecular target: Tyrosine-protein kinase JAK1 (Homo sapiens, UniProt P23458); assay: (§1) Biochemical HTRF Enzyme Assay Protocol: The basic assay protocol is as follows: First, 250 nL of diluted compounds in DMSO were dispensed into the wells of a dry 384-well Black plate (GreinerFluotrac™ catalog number: 781076; Greiner Bio-One GmbH, Frickenhausen, Germany) using a Labcyte Echo® 555 acoustic dispenser ([…], Sunnyvale, Calif., USA). Subsequent reagent additions employed an Agilent™ Bravo™ liquid handling system (Aligent Technologies, Santa Clara, Calif., USA). […] After equilibration, 2 μL of 10×ATP in 1× assay buffer was added to initiate the kinase reaction and the plates were shaken and then incubated at ambient temperature for 120 minutes. At the end of the incubation, 20 μL of 2× stop buffer (Streptavidin-Dylight 650/100 mL catalogue number: 8454B (Invitrogen™/Life Technologies/ThermoFisher Scientific Inc., Waltham, Mass., USA); Europium-tagged pY20 antibody (PerkinElmer™ catalogue number: AD0067 (PerkinElmer™, Waltham, Mass., USA)); EDTA; HEPES; and Triton™ X-100 (Sigma-Aldrich, St. Louis, Mo., USA) was added to quench the reaction.
[2] = molecular target: Tyrosine-protein kinase JAK2 (Homo sapiens, UniProt O60674); assay: as §1
Tyrosine-protein kinase JAK2, sequence (O60674 whole entry): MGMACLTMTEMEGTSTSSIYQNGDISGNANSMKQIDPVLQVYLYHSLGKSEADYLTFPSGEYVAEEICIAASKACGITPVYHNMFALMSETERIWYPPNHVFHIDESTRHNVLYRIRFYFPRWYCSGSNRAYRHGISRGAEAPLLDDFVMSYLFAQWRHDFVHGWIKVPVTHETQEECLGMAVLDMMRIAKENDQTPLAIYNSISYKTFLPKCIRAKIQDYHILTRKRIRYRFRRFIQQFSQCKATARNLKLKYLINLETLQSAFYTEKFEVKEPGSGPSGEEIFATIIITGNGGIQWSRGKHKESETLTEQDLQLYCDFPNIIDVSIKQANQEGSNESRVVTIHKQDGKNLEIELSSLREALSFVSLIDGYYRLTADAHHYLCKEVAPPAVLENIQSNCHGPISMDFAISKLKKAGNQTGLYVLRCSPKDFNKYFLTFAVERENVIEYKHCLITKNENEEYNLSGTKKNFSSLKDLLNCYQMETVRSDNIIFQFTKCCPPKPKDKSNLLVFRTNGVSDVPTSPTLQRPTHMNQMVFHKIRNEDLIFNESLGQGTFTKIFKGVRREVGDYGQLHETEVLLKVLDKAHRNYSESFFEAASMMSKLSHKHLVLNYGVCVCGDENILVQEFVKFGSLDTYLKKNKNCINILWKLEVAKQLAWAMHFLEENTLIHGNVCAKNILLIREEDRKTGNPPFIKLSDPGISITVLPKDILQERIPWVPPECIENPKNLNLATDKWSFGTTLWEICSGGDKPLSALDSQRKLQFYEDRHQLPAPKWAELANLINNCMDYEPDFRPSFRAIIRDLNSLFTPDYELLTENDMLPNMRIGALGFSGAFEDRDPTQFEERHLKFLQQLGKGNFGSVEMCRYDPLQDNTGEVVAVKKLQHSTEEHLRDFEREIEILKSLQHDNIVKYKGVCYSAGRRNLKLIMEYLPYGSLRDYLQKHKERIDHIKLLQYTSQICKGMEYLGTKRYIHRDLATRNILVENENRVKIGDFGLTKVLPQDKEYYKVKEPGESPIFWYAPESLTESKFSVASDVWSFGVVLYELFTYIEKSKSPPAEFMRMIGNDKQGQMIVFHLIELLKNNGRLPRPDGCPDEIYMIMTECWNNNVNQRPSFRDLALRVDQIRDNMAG

Tyrosine-protein kinase JAK1, sequence (P23458 whole entry): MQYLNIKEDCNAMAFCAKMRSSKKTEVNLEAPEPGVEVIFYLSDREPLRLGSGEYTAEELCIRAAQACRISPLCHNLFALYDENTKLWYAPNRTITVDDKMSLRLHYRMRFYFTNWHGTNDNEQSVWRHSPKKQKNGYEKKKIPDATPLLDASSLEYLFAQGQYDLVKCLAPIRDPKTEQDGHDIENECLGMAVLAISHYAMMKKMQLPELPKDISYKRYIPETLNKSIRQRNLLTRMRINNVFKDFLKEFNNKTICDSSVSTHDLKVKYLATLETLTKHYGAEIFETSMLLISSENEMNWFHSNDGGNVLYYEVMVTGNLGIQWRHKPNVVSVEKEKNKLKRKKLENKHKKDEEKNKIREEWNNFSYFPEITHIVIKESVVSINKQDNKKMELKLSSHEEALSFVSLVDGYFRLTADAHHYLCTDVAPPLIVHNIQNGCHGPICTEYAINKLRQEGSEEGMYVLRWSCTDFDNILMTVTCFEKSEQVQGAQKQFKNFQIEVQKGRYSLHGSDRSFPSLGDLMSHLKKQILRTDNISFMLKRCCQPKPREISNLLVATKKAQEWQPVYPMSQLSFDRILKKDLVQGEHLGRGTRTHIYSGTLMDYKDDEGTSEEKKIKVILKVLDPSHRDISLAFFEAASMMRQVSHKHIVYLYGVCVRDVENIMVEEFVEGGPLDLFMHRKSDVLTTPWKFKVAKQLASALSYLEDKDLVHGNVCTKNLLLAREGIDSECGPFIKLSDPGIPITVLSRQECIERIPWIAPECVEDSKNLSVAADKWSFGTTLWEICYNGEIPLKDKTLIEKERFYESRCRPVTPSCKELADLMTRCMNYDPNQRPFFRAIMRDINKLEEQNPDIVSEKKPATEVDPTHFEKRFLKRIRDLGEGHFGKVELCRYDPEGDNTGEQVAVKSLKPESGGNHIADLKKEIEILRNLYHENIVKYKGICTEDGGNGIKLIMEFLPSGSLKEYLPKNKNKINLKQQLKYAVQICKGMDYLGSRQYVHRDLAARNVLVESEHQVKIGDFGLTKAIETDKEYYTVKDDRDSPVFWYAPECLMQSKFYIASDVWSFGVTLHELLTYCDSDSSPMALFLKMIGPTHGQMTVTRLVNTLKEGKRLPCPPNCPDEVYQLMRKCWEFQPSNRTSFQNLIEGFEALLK

| IC50 [1] [nM] | IC50 [2] [nM] | Structure (SMILES) |
| --- | --- | --- |
| 0.16 | 1.35 | N#C[C@H]1CCOC[C@@H]1n1cc(C(N)=O)c(Nc2ccc(OC(F)(F)F)cc2)n1 |
| 2.09 |  | N#C[C@H]1CCOC[C@@H]1n1cc(C(N)=O)c(Nc2ccc(Cl)c(Cl)c2)n1 |
